Results as given in patent publication US20110111016A1, “NON-DNA BASE-CONTAINING POLYNUCLEOTIDE COMPOSITIONS AND THEIR USE FOR THE MODULATION OF IMMUNE RESPONSES” (priority 2009, published 2011).

Assays:
human TLR3 = biological target: T1, human TLR3 (Homo sapiens, UniProt O15455); assay: NF-κB activation (secreted alkaline phosphatase reporter) in HEK293 cells expressing human TLR3; format: cell-based; settings: HEK293/hTLR3 cell line; polynucleotide final concentration 10 μg/mL; 16-20 hours
T1 construct: host or cells: HEK293
T1 sequence (O15455 24-904): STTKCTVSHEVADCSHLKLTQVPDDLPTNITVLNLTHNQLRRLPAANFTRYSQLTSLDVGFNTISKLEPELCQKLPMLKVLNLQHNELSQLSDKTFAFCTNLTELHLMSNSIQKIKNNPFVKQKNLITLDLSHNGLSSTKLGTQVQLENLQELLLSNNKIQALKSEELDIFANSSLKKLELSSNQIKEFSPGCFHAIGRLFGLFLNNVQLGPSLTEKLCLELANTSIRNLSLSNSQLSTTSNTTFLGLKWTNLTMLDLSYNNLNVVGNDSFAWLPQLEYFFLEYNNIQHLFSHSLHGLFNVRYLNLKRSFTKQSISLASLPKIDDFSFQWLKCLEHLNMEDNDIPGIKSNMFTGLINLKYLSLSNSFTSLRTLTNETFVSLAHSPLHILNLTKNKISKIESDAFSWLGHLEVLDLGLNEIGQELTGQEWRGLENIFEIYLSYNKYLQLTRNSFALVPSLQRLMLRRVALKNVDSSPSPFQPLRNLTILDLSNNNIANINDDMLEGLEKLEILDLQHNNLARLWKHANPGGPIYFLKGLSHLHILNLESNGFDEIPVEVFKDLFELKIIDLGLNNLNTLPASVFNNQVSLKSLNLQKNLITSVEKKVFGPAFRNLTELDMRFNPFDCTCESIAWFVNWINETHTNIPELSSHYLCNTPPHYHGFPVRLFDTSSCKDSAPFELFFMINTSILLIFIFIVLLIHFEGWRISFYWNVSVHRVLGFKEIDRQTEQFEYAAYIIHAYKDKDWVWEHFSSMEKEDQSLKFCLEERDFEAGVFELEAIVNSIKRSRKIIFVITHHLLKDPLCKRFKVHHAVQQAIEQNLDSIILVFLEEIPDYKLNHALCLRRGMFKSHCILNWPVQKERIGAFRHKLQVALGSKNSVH
Experimental: Toll-like receptors (TLR) are known to interact with a number of natural and synthetic molecules that can function as immune adjuvants. Examples of these molecules are Poly (I:C) polynucleotides, lipopolysaccharide and CpG-containing polynucleotides. The interaction of non-DNA base-containing polynucleotides (SEQ ID NOs: 1-3) to interact with TLR and induce down-stream signaling was tested by assessing NF-κB activation in HEK293 cells expressing human TLR2, 3, 4, 5, 7, 8 and 9. TLR engagement was determined by measurement of secreted alkaline phosphatase, under the control of a reporter inducible by NF-κB. Appropriate positive controls were used for each TLR. The non-DNA base-containing polynucleotides were dissolved in sterile water at a concentration of 100 μg/mL, and used at a final concentration of 10 μg/mL. HEK293 cells containing the appropriate TLR and NF-κB reporting system (InvivoGen, San Diego, Calif., USA) were placed in wells of 96 well plates (25,000-50,000 cells, in a final volume of 200 μL medium designed for the detection of NF-κB induced secreted alkaline phosphatase expression), and incubated with non-DNA base-containing polynucleotides or positive controls for 16-20 hours. TLR activating activity was determined by measurement of absorbance at 650 nm wavelength using a Coulter AD340C absorbance detector. The results shown are expressed as Optical Density (OD).

human PBMC = assay: Induction of cytokines and chemokines from human PBMC, comparison with CpG polynucleotides (Milliplex MAP kit); format: cell-based; settings: for Cytokine, IL-6 / Cytokine, IL-10 / Cytokine, MCP-1 / Cytokine, RANTES (CCL5): human PBMC culture supernatant, 48 h, final concentration 10 μg/mL; for Chemokine (MCP-1, RANTES) inducing activity towards human PBMC (in words) / Interleukin (cytokine) inducing activity towards human PBMC (in words): in comparison to LPS and MCC, Table 14
Experimental: LPS and MCC were included as positive controls as described in Example 7. PBMC were isolated from whole blood using standard Ficoll-Paque Plus (GE Healthcare Life Sciences, Baie d'Urfé, QC, Canada) gradient centrifugation, and placed in tissue culture plates at a concentration of 1×10^6 cells/mL (total volume: 1 mL in RPMI 1640 medium containing 10% heat-inactivated FBS (both from Wisent, St-Bruno, QC, Canada) and 50 μg/mL gentamycin sulfate (Sigma-Aldrich Canada, Oakville, ON, Canada). Non-DNA base-containing polynucleotide SEQ ID NOs: 1, 2, 3, 4, 5, 6, 7, 8 and 9 were added to separate wells to give a final concentration of 10 μg/mL, LPS was added to give a final concentration of 10 μg/mL, and the non-CpG 4010, CpG 2336, CpG 2429 and CpG 7909 polynucleotides, SEQ ID NOs: 31, 33, 35 and 34, respectively, were added to give a final concentration of 10 μg/mL.
The cells were then cultivated for 48 h. Cytokines (interleukins IL-6 and IL-10, chemokines MCP-1 and RANTES) in the culture supernatant were measured using a Milliplex™ MAP kit (Millipore Corporation, Billerica, Mass., USA) on a Bio-Plex 200 system (Bio-Rad Laboratories, Hercules, Calif., USA). MCP-1, also known as monocyte chemotactic protein, is an essential chemokine required for effective monocyte and myeloid dendritic cell activation and trafficking across endothelial and epithelial barriers (see for example Henkel et al, 2004 Ann. Neurol. 55:221-235), and RANTES (Regulated on Activation, Normal T cell Expressed and Secreted, now more commonly known as CCL5) is produced by memory phenotype T cells and is chemotactic for and activates T-cells (see for example Swanson et al, 2002 Immunity 17:605-615).

| Substance | TLR activation, Optical Density at 650 nm, hTLR3 (human TLR3) | Cytokine, IL-6 (human PBMC) | Cytokine, IL-10 (human PBMC) | Cytokine, MCP-1 (human PBMC) | Cytokine, RANTES (CCL5) (human PBMC) | Chemokine (MCP-1, RANTES) inducing activity towards human PBMC (in words) (human PBMC) | Interleukin (cytokine) inducing activity towards human PBMC (in words) (human PBMC) |
| --- | --- | --- | --- | --- | --- | --- | --- |
| IIGTII [SEQ ID NO: 3] | 0.057 | 1 pg/mL | 0 pg/mL | 57 pg/mL | 72 pg/mL | marginal or no | marginal or no |
| UUGTUU [SEQ ID NO: 2] | 0.056 | 6 pg/mL | 0 pg/mL | 196 pg/mL | 66 pg/mL | marginal or no | marginal or no |
| NebGGTGNeb (DNA NGGTGN; Nebularine at both ends, sugar and linkages not given here, further chemistry not given here) [SEQ ID NO: 1, 5′-OH, 3′-OH non-DNA base-containing polynucleotide] | 0.055 | 26 pg/mL | 0 pg/mL | 160 pg/mL | 93 pg/mL | marginal or no | marginal or no |
